# Assay results as given in patent US11021687B2, “Production of differentiated enteroendocrine cells and insulin producing cells” (Massachusetts Institute of Technology, priority 2016, dated 2021).
# Key:
# intestinal stem cells [1] = experiment: mRNA expression (qPCR) of ChgA and other lineage markers in differentiated intestinal stem cells; assay type: cell-based, mouse; settings: for EEC marker ChgA expression / expression of markers for K cell (Gip), L cell (Gcg), and I cell (Cck): 5 days 2-step protocol, Tubastatin A in step 1, Tranylcypromine in both steps; for expression of Goblet cell marker (Muc2) and Paneth cell marker (Lyz1): 24-well validation; for expression of enteroendocrine cell marker ChgA: multiple conditions (FIG. 6)
# From the text: “mRNA ChgA Expression Assay” refers to an assay used to determine the relative ChgA mRNA expression level in a cell population. For example, the assay can determine ChgA mRNA expression level of a differentiated cell population following treatment with agents being tested, as compared to an untested population of post-natal stem cells. In an example of an mRNA ChgA Expression Assay, the cells were collected and the RNA is extracted from the cells using an RNA extraction kit (such as RNeasy Mini kit, Qiagen). The ChgA expression level is then assessed by Quantitative real-time PCR using a one-step qPCR kit (such as QuantiTech Probe PCR kit, Qiagen) and ChgA primers and probes (such as commercially available Taqman probe for mouse ChgA, Life Technologies).
# (§1) Organoids or differentiated cells were harvested and RNA was extracted using RNeasy Micro Kit (Qiagen) according to the manufacturer's instruction. Quantitative real-time PCR was performed with QuantiTect Probe PCR kit (Qiagen) using commercially available primers and TaqMan probes (Life Technologies).
# Cells were then cultured with EGF, Noggin, and DAPT (END), as well as small molecules. After 2-3 days of differentiation, the cells lysed and ChgA expression was measured by qRT-PCR.
# Small molecules were further validated using a 24-well plate culture and the differentiation system. […] The expression of markers of secretory lineage cells including goblet cells (Muc2), enteroendocrine cells (ChgA), and Paneth cells (Lyz1) were measured.
# intestinal stem cells [2] = experiment: Ngn3 mRNA expression during EEC differentiation; assay type: cell-based, mouse
# Description: “Ngn3 Assay” as used herein is an assay used to determine the extent of expression of Ngn3 in cells, such as cells subjected to a differentiation protocol. In an exemplary Ngn3 Assay, RNA is isolated from cells that have been cultured according to a differentiation protocol, and quantitative real-time PCR is performed using commercially available primers and probes (such as Taqman probes) to determine an extent of Ngn3 expression in the cells.
# as §1
# There has been prior speculation that Ngn3 positive secretory progenitors differentiate to EECs (Genes Dev. 2002).
# [3] = system: differentiated cell colonies; settings: for effect of removal: continuing culture of Islet-like Insulin expression cell colonies
# [4] = system: gastrointestinal stem cells; experiment: Insulin / Nkx6.1 mRNA expression (qPCR), 3-stage conversion to insulin producing cells; assay type: cell-based, mouse
# From the text: “mRNA Insulin Expression Assay” refers to an assay used to determine the relative insulin mRNA expression level of a cell population. For example, the assay can determine the insulin mRNA level expressed in a cell population treated to increase the expression of insulin in the cells, as compared to an untreated population of cells. In an exemplary mRNA Insulin Expression Assay, the cells were collected and the RNA is extracted from the cells using an RNA extraction kit (such as RNeasy Mini kit, Qiagen). The insulin expression level is then assessed by Quantitative real-time PCR using a one-step qPCR kit (such as QuantiTech Probe PCR kit, Qiagen) and Ins1 or Ins2 primers and probes (such as the commercially available TaqMan probe for mouse Ins1 and Ins2, Life Technologies). The relative insulin mRNA expression can be determined relative to a baseline or other marker, such as Hprt mRNA expression level or other baseline marker.
# as §1
# Based on the protocol to convert gastrointestinal stem cells into insulin producing cells, a 3-stage process was developed, specifically, Day 0-1 as Stage 1, Day 1-3 as Stage 2, Day 3-5 as Stage 3. After Stage 3, the cells turn on significant level of Insulin expression as indicated by Ins-EGFP expression and qPCR for Insulin mRNA expression. Optionally, the cells can be further cultured for 1-2 weeks, as Stage 4. For each stage, a set of specific combination of small molecules (and/or growth factors) were added. The objective was to optimize the reprogramming protocol to increase insulin expression, specifically Insulin mRNA expression for each stage, by screening and testing new small molecules (or growth factors).
# intestinal stem cells [5] = experiment: ChgA immunostaining of EEC differentiation from intestinal stem cells; assay type: cell-based, mouse; settings: organoid culture (ENR) with Notch inhibitor DAPT (ENRD)
# Description: “ChgA Immunostaining Assay” as used herein is an assay used to determine the fraction of cells in a cell population that express ChgA by an immunostaining method. In an example of a ChgA immunostaining assay, a cell culture medium in which a cell population has been treated is removed, and the sample is washed with PBS. Organoids or cell colonies cultured in Matrigel are fixed directly by adding 4% PFA and incubating for 20 mins at room temperature. The Matrigel is then mechanically disrupted, and the cells are transferred to BSA-coated Eppendorf tubes. Samples are washed with PBS, permeabilized with 0.25% Triton X-100 for 30 minutes, and stained with primary antibody against Chromogranin A (e.g. anti-chromogranin A, sc-13090, Santa Cruz) and appropriate secondary antibodies (e.g. Alexa Fluor conjugated secondary antibodies, such as Alexa Fluor 594 conjugated Donkey anti-Rabbit antibody, A-21207; Life Technologies). Images are acquired by confocal microscopy.
# Differentiated cell colonies were collected by gently pipetting into a 1.5 ml protein Lobind Eppendorf tube. Cell culture medium was removed, and samples were washed with PBS. Organoids or cell colonies cultured in Matrigel were fixed by directly adding 4% PFA and incubating for 10-30 min at room temperature. Matrigel was then mechanically disrupted, and cells were transferred into BSA-coated Eppendorf tubes. […]
# [6] = system: differentiated intestinal stem cells; experiment: Insulin-GFP reporter expression (FACS) in differentiated intestinal stem cells; assay type: cell-based, mouse
# From the text: “Insulin Activity Assay” as used herein is an assay used to determine the extent to which insulin gene transcription, translation or insulin release has been activated in a cell population. In an exemplary Insulin Activity Assay, the initial cells are isolated from the intestine of an Insulin-GFP mouse such as […] mouse (also referred to as the MIT-GFP mouse, Jackson lab stock no.: 006864). Intestinal crypts are isolated from the proximal half of the intestine. […] The cells are then passaged for 1-2 times to create a starting cell population for the assay. To test the capacity of agents to activate insulin gene transcription, translation or insulin release, the cells are incubated with appropriate culture media (e.g. aforementioned crypt culture media), growth factors and/or other agents being tested. Appropriate culture media, including crypt culture media as well as the agents being assessed, are added into each well and incubated with the cells for a period of 2-10 days with media change every 2 days. The fraction of insulin-GFP positive cells (i.e., cells in which the insulin-GFP reporter is activated) can be quantified using a flow cytometer to measure the fraction of GFP+ cell population present in the total cell population. Also, the average insulin activity of a cell population can be measured by measuring the average mRNA expression level of insulin of the population normalized using suitable references or housekeeping genes (e.g., using mRNA expression of Hprt as a baseline).
# [7] = ENRD conditions, 2 days of differentiation
# [8] = 96-well screening, END conditions, 2-3 days
# [9] = 2 days, added after removal of R-spondin1
# [10] = added in step 1 only versus both steps
structure (smiles),measurement,setting,value
N[C@@H]1C[C@H]1c1ccccc1 (racemic) [Tranylcypromine],expression of Goblet cell (Muc2) and Paneth cell (Lyz1) markers,"intestinal stem cells [1]; 2-step protocol, 5 days",significantly decreased
same,EEC marker ChgA expression,intestinal stem cells [1],increased
same,"expression of markers for K cell (Gip), L cell (Gcg), and I cell (Cck)",intestinal stem cells [1],also increased
same,ChgA expression,intestinal stem cells [1]; [7],increased
same,Ngn3 expression,intestinal stem cells [2]; [7],increase
O=C(NC[C@H](O)CO)c1ccncc1Nc1ccc(I)cc1F [AS703026],expression of Goblet cell marker (Muc2) and Paneth cell marker (Lyz1),intestinal stem cells [1]; END conditions,not similarly increased
same,ChgA expression,intestinal stem cells [1]; [8],increased
same,expression of enteroendocrine cell marker ChgA,intestinal stem cells [1],specifically increased
same,Ngn3 expression,intestinal stem cells [2]; [9],further decreased
"C[C@H](NC(=O)Cc1cc(F)cc(F)c1)C(=O)N[C@H](C(=O)OC(C)(C)C)c1ccccc1 [DAPT, N—[N-(3,5-Difluorophenacetyl)-L-alanyl]-S-phenylglycine t-butyl ester]",effect of removal,[3],could be removed without much influence
same,concentration of highest activity / optimal concentration in promoting Insulin expression,[4]; dose response,5 µM
same,stem cells turned into EECs,intestinal stem cells [5],5%-10%
COc1cc2ncnc(Nc3ccc(F)c(Cl)c3)c2cc1OCCCN1CCOCC1 [Gefitinib],expression of Goblet cell marker (Muc2) and Paneth cell marker (Lyz1),intestinal stem cells [1]; END conditions,not similarly increased
same,ChgA expression,intestinal stem cells [1]; [8],increased
same,expression of enteroendocrine cell marker ChgA,intestinal stem cells [1],specifically increased
same,Ngn3 expression,intestinal stem cells [2]; [9],further decreased
"O=C(NOC[C@H](O)CO)c1ccc(F)c(F)c1Nc1ccc(I)cc1F [PD0325901, N-[(2R)-2,3-Dihydroxypropoxyl]-3,4-difluoro-2-[(2-fluoro-4-iodophenyl)amino]-benzamide]",effect of removal,[3],could be removed without much influence
same,expression of Goblet cell marker (Muc2) and Paneth cell marker (Lyz1),intestinal stem cells [1]; END conditions,not similarly increased
same,expression of enteroendocrine cell marker ChgA,intestinal stem cells [1],specifically increased
same,Ngn3 expression,intestinal stem cells [2]; [9],further decreased
"CN1CCc2c(c3ccccc3n2Cc2ccc(C(=O)NO)cc2)C1.Cl [Tubastatin A, N-Hydroxy-4-(2-methyl-1,2,3,4-tetrahydro-pyrido[4,3-b]indol-5-ylmethyl)benzamide hydrochloride]",EEC marker ChgA expression,intestinal stem cells [1],increased
same,"expression of markers for K cell (Gip), L cell (Gcg), and I cell (Cck)",intestinal stem cells [1],also increased
same,ChgA expression,intestinal stem cells [1]; [7],decreased
same,Ngn3 expression,intestinal stem cells [2]; [7],increase
"Cc1cccc(-c2n[nH]cc2-c2ccc3ncccc3n2)n1 [compound 616452, 2-[3-(6-methyl-2-pyridinyl)-1H-pyrazol-4-yl]-1,5naphthyridine]",cell death in the culture,[3],induced cell death
same,Insulin mRNA (Ins2),[4]; added in Stage 1-3 compared with Stage 2-3,increased
same,optimal dose in promoting Insulin and Nkx6.1 expression,[4]; dose response,10 to 15 µM
same,optimal concentration in inducing insulin-GFP expression,"[6]; dose response, day 5",5 µM
same,cells becoming GFP positive,[6]; during EEC differentiation from ISCs,about 1%
same,"expression of mature EEC markers (Gcg, Gip, Cck, Tph1, Sst, Sct, Pyy)",intestinal stem cells [1]; 2-step protocol,greatly increased
same,goblet cell marker Muc2 expression,intestinal stem cells [1]; 2-step protocol,decreased
same,Cck expression over the expression level in the ENR condition,intestinal stem cells [1]; 2-step protocol with Repsox,430 ×
same,Gip expression over the expression level in the ENR condition,intestinal stem cells [1]; 2-step protocol with Repsox,800 ×
same,Pyy expression over the expression level in the ENR condition,intestinal stem cells [1]; 2-step protocol with Repsox,"15,000 ×"
same,Sct expression over the expression level in the ENR condition,intestinal stem cells [1]; 2-step protocol with Repsox,300 ×
same,Tph1 expression over the expression level in the ENR condition,intestinal stem cells [1]; 2-step protocol with Repsox,120 ×
same,ChgA level,intestinal stem cells [1]; [10],comparable level
same,expression of mature EEC markers,intestinal stem cells [1]; [10],greatly reduced
same,ChgA expression,intestinal stem cells [1]; added in step 2 of 2-step protocol,greatly promoted
same,"expression of functional EEC markers such as Gip, Gcg, Cck, Pyy",intestinal stem cells [1]; relative to reference gene Hprt,greatly increase
